Assay results reported in US6747021B2, “Cryptophycin compound” (Eli Lilly and Company, priority 2000, dated 2004).
Like-named read-outs stand apart in the source and are kept apart here.

Tests used:
[1] = test system: MAMMARY ADENOCARCINOMA-16/C/Adr; assay: Early stage murine mammary adenocarcinoma-16/C/Adr subcutaneous tumor assay; type: in vivo; conditions: C3H female mice
Source text: (§1) Inhibition of tumors transplanted into mice is an accepted procedure for studying the efficacy of antitumor agents (Corbett, et al., In vivo Methods for Screening and Preclinical Testing; Use of rodent solid tumors for drug discovery., In: Anticancer Drug Development Guide: Preclinical Screening, Clinical Trials, and Approval, B. Teicher (ed), Humana Press Inc., Totowa, N.J., Chapter 5, pages 75-99 (1997); (Corbett, et al., Int. J. Pharmacog., 33, Supplement, 102-122 (1995)). Murine tumors or human xenographs were implanted essentially as described by Corbett in In vivo Methods for Screening and Preclinical Testing; Use of rodent solid tumors for drug discovery. Briefly, the murine tumor or human xenograph was implanted subcutaneously using either 12-gauge trocar implants or counted number of cells. The location for the trocar insertion is midway between the axillary and inguinal region along the side of the mouse. The trocar is slipped approximately ¾ of an inch subcutaneously up toward the axilla before discharging the tumor fragment, and pinching the skin as the trocar is removed. Alternatively, human tumor cells prepared from a […] of donor tumors (5×10^6 cells) were implanted subcutaneously in a hind-leg of a male or female nude mouse (Charles River). Either a test compound in vehicle or vehicle alone was administered by intravenous bolus injection (iv), intraperitoneal injection (ip), or oral gavage (po). Each treatment group, as well as a group of untreated control animals, consisted of five animals per group in each experiment. Subcutaneous tumor response was monitored by tumor volume measurement performed twice each week over the course of the experiment (60-120 days). Body weights were taken as a general measure of toxicity. The subcutaneous tumor data were analyzed by determining the median tumor weight for each treatment group over the course of the experiment and calculating the tumor growth delay as the difference in days for the treatment versus the control tumors to reach a volume of either 500 or 1000 mm^3.
(§2) Cryptophycin-309 (309) was tested against a variety of murine and human tumors substantially as described supra. Cryptophycin-55 glycinate (55-GLY), Taxol, and Adriamycin (Adria) were also included in certain tests for purposes of comparison. Cryptophycin 55 glycinate is known in the art (WO 98/08505, Example 9) and has the following structure: [drawing 9]
(§3) Tumor Weight(mg)=(a×b^2)/2 where a=tumor length (mm) and b=tumor width (mm).
(§4) Tumor Growth Delay=T−C where T is the median time (days) required for the treatment group tumors to reach a predetermined size, and C is the median time (days) for the control group tumors to reach the same size. Tumor-free survivors are excluded from this calculation, and are tabulated separately (Tumor Free).
(§5) Log Kill=Tumor Growth Delay/(3.32)(Td)
(§6) where Tumor Growth Delay is as previously defined and Td is tumor volume doubling time (days), estimated from the best fit straight line from a log-linear growth plot of the control group of tumors in exponential growth (100-800 mg range)
(§7) %T/C mass—The treatment and control groups are measured when the control group tumors reach approximately 700 to 1200 mg in size (median group). The median tumor weight of each group is determined (including zeros). The T/C value in percent is an indication of antitumor effectiveness. A T/C≦42% is considered significant antitumor activity. A T/C<10% is considered to indicate highly significant antitumor activity.
(§8) Body Weight Loss Nadir—A body weight loss nadir (mean of group) of greater than 20% or drug deaths greater than 20% are considered to indicate an excessively toxic dosage in single course trials.
(§9) Activity Rating—the Activity Rating is derived from the Log Kill according to the following table: […]

[2] = test system: COLON ADENOCARCINOMA-26/A; type: in vivo, murine; conditions: IV 6.5 mg/kg/inj days 1,5,9; total dose 19.5 mg/kg; Balb/C female mice
Source text: as §1, §2, §3, §4, §5, §6, §7, §8, §9

[3] = test system: COLON ADENOCARCINOMA 51/A; assay: Early stage murine colon adenocarcinoma 51/A subcutaneous tumor assay; type: in vivo; conditions: IV 6.5 mg/kg/inj days 3,6,9; total dose 19.5 mg/kg; CDF female mice
Source text: as §1, §2, §3, §4, §5, §6, §7, §8, §9

[4] = test system: PANCREATIC DUCTAL ADENOCARCINOMA #02; type: in vivo, murine; conditions: BDF1 female mice, experiment ##
Source text: as §1, §2, §3, §4, §5, §6, §7, §8, §9

[5] = test system: MAMMARY ADENOCARCINOMA-17/ADR/Resist.; type: in vivo, murine; conditions: C3H female mice
Source text: as §1, §2, §3, §4, §5, §6, §7, §8, §9

[6] = test system: MAMMARY ADENOCARCINOMA 16/C; type: in vivo, murine; conditions: C3H/HeN female mice
Source text: as §1, §2, §3, §4, §5, §6, §7, §8, §9

[7] = test system: HUMAN COLON ADEN[…]-116; assay: Early stage human colon adenocarcinoma HCT-116 xenograft assay; type: in vivo; conditions: Balb/C SCID female mice
Source text: as §1, §2, §3, §4, §5, §6, §7, §8, §9

[8] = test system: HUMAN COLON ADENOCARCINOMA 15; type: in vivo; conditions: Balb/C SCID female mice
Source text: as §1, §2, §3, §4, §5, §6, §7, §8, §9

[9] = IV 7.5 mg/kg/inj days 1 and 7, total dose 15 mg/kg
[10] = IV 28 mg/kg/inj days 1,3,5,7,9, total dose 140 mg/kg
[11] = IV 42 mg/kg/inj days 1,3,7,9, total dose 168 mg/kg
[12] = IV 42 mg/kg/inj days 1,3,5,7,9, total dose 210 mg/kg
[13] = IV 28 mg/kg/inj days 3,5,7,9,11, total dose 140 mg/kg
[14] = IV 42 mg/kg/inj days 3,5,7,9,11, total dose 210 mg/kg
[15] = IV 32 mg/kg/inj twice/day days 3,5,7,9,11, total dose 320 mg/kg

## COc1cccc2c1C(=O)c1c(O)c3c(c(O)c1C2=O)C[C@@](O)(C(=O)CO)C[C@@H]3O[C@H]1C[C@H](N)[C@H](O)[C@H](C)O1 [Adriamycin]
[1]; [9]
  DRUG DEATHS: 0/5
  LOG KILL: None
  MEDIAN TUMOR WEIGHT: 1096 mg
[2]
  % T/C MASS: 44%
  DRUG DEATHS: 0/5
  LOG KILL: None
  MEDIAN TUMOR WEIGHT: 393 mg
[3]
  % T/C MASS: 0%
  ACTIVITY RATING: +++ (2.0-2.8)
  DRUG DEATHS: 0/6
  GROWTH DELAY: 16.6 days
  LOG KILL: 2.0
  MEDIAN TUMOR WEIGHT: 0 mg

## COc1ccc(C[C@H]2NC(=O)/C=C/C[C@@H]([C@H](C)[C@@H](OC(=O)CN)[C@@H](Cl)c3ccccc3)OC(=O)[C@H](CC(C)C)OC(=O)C(C)(C)CNC2=O)cc1Cl [Cryptophycin 55-GLY, Cryptophycin-55 glycinate]
[1]; [10]
  % T/C MASS: 24%
  ACTIVITY RATING: ++ (1.3-1.9)
  DRUG DEATHS: 0/5
  GROWTH DELAY: 6.2 days
  LOG KILL: 1.7
  MEDIAN TUMOR WEIGHT: 48 mg
[1]; [11]
  % T/C MASS: 0%
  ACTIVITY RATING: +++ (2.0-2.8)
  DRUG DEATHS: 0/5
  GROWTH DELAY: 7.8 days
  LOG KILL: 2.1
  MEDIAN TUMOR WEIGHT: 0 mg
[4]; [10]
  % T/C MASS: 9%
  ACTIVITY RATING: ++ (1.3-1.9)
  DRUG DEATHS: 0/5
  GROWTH DELAY: 13 days
  LOG KILL: 1.8
  MEDIAN TUMOR WEIGHT: 95 mg
[4]; [12]
  % T/C MASS: 0%
  ACTIVITY RATING: +++ (2.0-2.8)
  DRUG DEATHS: 0/5
  GROWTH DELAY: 16 days
  LOG KILL: 2.2
  MEDIAN TUMOR WEIGHT: 0 mg
[5]; [10]
  % T/C MASS: 24%
  ACTIVITY RATING: ++ (1.3-1.9)
  DRUG DEATHS: 0/5
  GROWTH DELAY: 5.25 days
  LOG KILL: 1.6
  MEDIAN TUMOR WEIGHT: 577 mg
[5]; [12]
  % T/C MASS: 0%
  ACTIVITY RATING: +++ (2.0-2.8)
  DRUG DEATHS: 0/5
  GROWTH DELAY: 7.6 days
  LOG KILL: 2.3
  MEDIAN TUMOR WEIGHT: 0 mg
[6]; [13]
  % T/C MASS: 0%
  ACTIVITY RATING: ++++ (>2.8)
  DRUG DEATHS: 0/5
  GROWTH DELAY: 15 days
  LOG KILL: 3.5
  MEDIAN TUMOR WEIGHT: 0 mg
[6]; [14]
  % T/C MASS: 0%
  ACTIVITY RATING: ++++ (>2.8)
  DRUG DEATHS: 0/5
  GROWTH DELAY: 17.5 days
  LOG KILL: 4.1
  MEDIAN TUMOR WEIGHT: 0 mg
[7]; [13]
  % T/C MASS: 5.5%
  ACTIVITY RATING: +++ (2.0-2.8)
  DRUG DEATHS: 0/5
  GROWTH DELAY: 22 days
  LOG KILL: 2.65
  MEDIAN TUMOR WEIGHT: 63 mg
[7]; [15]
  % T/C MASS: 0%
  ACTIVITY RATING: ++++ (>2.8)
  DRUG DEATHS: 0/4
  GROWTH DELAY: 35 days
  LOG KILL: 4.2
  MEDIAN TUMOR WEIGHT: 0 mg
[7]; [14]
  % T/C MASS: 0%
  ACTIVITY RATING: ++++ (>2.8)
  DRUG DEATHS: 0/5
  GROWTH DELAY: 25 days
  LOG KILL: 3.0
  MEDIAN TUMOR WEIGHT: 0 mg
[8]; [13]
  % T/C MASS: 15%
  ACTIVITY RATING: +++ (2.0-2.8)
  DRUG DEATHS: 0/5
  GROWTH DELAY: 21.5 days
  LOG KILL: 2.2
  MEDIAN TUMOR WEIGHT: 171 mg
[8]; [15]
  % T/C MASS: 0%
  ACTIVITY RATING: ++++ (>2.8)
  DRUG DEATHS: 0/5
  GROWTH DELAY: 56 days
  LOG KILL: 4.0
  MEDIAN TUMOR WEIGHT: 0 mg
[8]; [14]
  % T/C MASS: 5.5%
  ACTIVITY RATING: +++ (2.0-2.8)
  DRUG DEATHS: 0/5
  GROWTH DELAY: 21.5 days
  LOG KILL: 2.2
  MEDIAN TUMOR WEIGHT: 63 mg
